Measured values as given in patent publication US9115064B2, “N-hydroxylsulfonamide derivatives as new physiologically useful nitroxyl donors” (The Johns Hopkins University, priority 2007, dated 2015).

Assay: HNO production via N2O quantification (GC headspace analysis, Angeli's salt as benchmark)
Type: physicochemical
Conditions: pH 7.4 in PBS buffer at 37° C.; for Nitrous oxide evolved as % of Angelis salt: relative to Angeli's salt

Row | Structure (SMILES) | % moles N2O/moles of sample [%] | Nitrous oxide evolved as % of Angelis salt [%]
1 | [Na+].[Na+].[O-][N+]([O-])=NO [Angeli's Salt, sodium dioxotrinitrate, reference compound] | 70.5 | 100
2 | COC(=O)c1ccccc1S(=O)(=O)NO [Compound 1, 2-Hydroxysulfamoyl-benzoic acid methyl ester] | 30.5 | 43
3 | O=C(O)c1cccc(S(=O)(=O)NO)c1 [Compound 2, 3-Hydroxysulfamoyl-benzoic acid] | 19 | 27
4 | O=C(O)c1ccc(Cl)c(S(=O)(=O)NO)c1 [Compound 3, 4-Chloro-3-hydroxysulfamoyl-benzoic acid] | 81.5 | 116
5 | O=C(O)c1ccc(Br)c(S(=O)(=O)NO)c1 [Compound 4, 4-Bromo-3-hydroxysulfamoyl-benzoic acid] | 82 | 117
6 | O=C(c1ccc(Br)c(S(=O)(=O)NO)c1)N1CCOCC1 [Compound 5, -Bromo-N-hydroxy-5-(morpholine-4-carbonyl)-benzenesulfonamide] | 80.5 | 115
7 | CN(C)C(=O)c1ccc(Br)c(S(=O)(=O)NO)c1 [Compound 6, 4-Bromo-3-(hydroxysulfamoyl)-N,N-dimethylbenzamide] | 81 | 116
8 | CN(C)C(=O)c1ccc(Cl)c(S(=O)(=O)NO)c1 [Compound 7, 4-Chloro-3-(hydroxysulfamoyl)-N,N-dimethylbenzamide] | 85 | 122
9 | O=S(=O)(NO)c1ccccc1S(=O)(=O)N1CCOCC1 [Compound 8, N-Hydroxy-2-(morpholin-4-ylsulfonyl)benzene sulfonamide] | 86 | 126
10 | O=C(OCCN1CCOCC1)c1ccc(Cl)c(S(=O)(=O)NO)c1 [Compound 9, -(Morpholin-4-yl)ethyl 4-chloro-3-(hydroxysulfamoyl)benzoate] | 65 | 93
11 | O=C(NCCN1CCOCC1)c1cc(Br)c(S(=O)(=O)NO)s1 [Compound 97, 4-Bromo-5-(hydroxysulfamoyl)-N-[2-(morpholin-4-yl)ethyl]thiophene-2-carboxamide] | 92 | 131
12 | O=C(c1cc(Br)c(S(=O)(=O)NO)s1)N1CCOCC1 [Compound 98, 3-Bromo-N-hydroxy-5-(morpholin-4-ylcarbonyl)thiophene-2-sulfonamide] | 81 | 116
